Patent US20120178766A1, “FUROPYRIMIDINEDIONE DERIVATIVES AS TRPAI MODULATORS” (priority 2009, published 2012)

Tests used:
human TRPA1 = biological target: T1, human TRPA1 (Homo sapiens, UniProt O75762); assay: 45Calcium uptake assay: inhibition of AITC induced cellular uptake of radioactive calcium, human TRPA1 expressing CHO cells; assay type: cell-based; details: AITC 30 μM; for inhibition at 1 µM: 1.0 μM compound, read-out: human TRPA1 Percentage inhibition at 1.0 μM; for inhibition at 10 µM: 10.0 μM compound, read-out: human TRPA1 Percentage inhibition at 10.0 μM; for IC50: class symbols
T1 construct: expressed in transfected cells; host or cells: CHO cells (G-418 selection)
From the text: The illustrative examples of the present invention are screened for TRPA1 activity according to a modified procedure described in (a) Tóth, A. et al. Life Sciences, 2003, 73, 487-498. (b) McNamara C, R. et al, Proc. Natl. Acad. Sci. U.S.A., 2007, 104, 13525-13530. The screening of the compounds can be carried out by other methods and procedures known to persons skilled in the art.
(§1) Screening for TRPA1 Antagonist Using the ^45Calcium Uptake Assay:
(§2) The inhibition of TRPA1 receptor activation was measured as inhibition of allyl isothiocyanate (AITC) induced cellular uptake of radioactive calcium.
Test compounds were dissolved in 100% DMSO to prepare 10 mM stock and then diluted using plain medium with 0.1% BSA and 1.8 mM CaCl2 to get the desired concentration. The final concentration of DMSO in the reaction was 0.5% (v/v). Human TRPA1 expressing CHO cells were grown in F-12 DMEM medium with 10% FBS, 1% penicillin-streptomycin solution, and 400 μg/ml of G-418. Rat TRPA1 expressing CHO cells were grown in F-12 DMEM medium with 10% FBS, 1% penicillin-streptomycin solution, and 400 μg/ml of Zeocin. Cells were seeded 24 h prior to the assay in 96 well plates so as to get ˜50,000 cells per well on the day of experiment. Cells were treated with the test compounds for 10 minutes followed by the addition of AITC at a final concentration of 30 μM (for human TRPA1) and/or 10 μM (for rat TRPA1) and 5 μCi/ml ^45Ca^+2 for 3 minutes. Cells were washed and lysed using a buffer containing 1% Triton X-100, 0.1% deoxycholate and 0.1% SDS. Radioactivity in the lysate was measured in a Packard TopCount after addition of liquid scintillant. (Toth et al, Life Sciences (2003) 73, 487-498; McNamara C R et al, Proceedings of the National Academy of Sciences, (2007) 104, 13525-13530).
(§3) Concentration response curves were plotted as a % of maximal response obtained in the absence of test antagonist. IC50 values can be calculated from concentration response curve by nonlinear regression analysis using GraphPad PRISM software.

rat TRPA1 = biological target: T2, rat TRPA1 (Rattus norvegicus, UniProt Q6RI86); assay: 45Calcium uptake assay: inhibition of AITC induced cellular uptake of radioactive calcium, rat TRPA1 expressing CHO cells; assay type: cell-based; details: AITC 10 μM; for inhibition at 10 µM: 10.0 μM compound, read-out: rat TRPA1 Percentage inhibition at 10.0 μM; for inhibition at 1 µM: read-out: rat TRPA1 Percentage inhibition; for IC50: class symbols
T2 construct: expressed in transfected cells; host or cells: CHO cells (Zeocin selection)
Experimental: as §1, §2
Test compounds were dissolved in 100% DMSO to prepare 10 mM stock and then diluted using plain medium with 0.1% BSA and 1.8 mM CaCl2 to get the desired concentration. The final concentration of DMSO in the reaction was 0.5% (v/v). […] Rat TRPA1 expressing CHO cells were grown in F-12 DMEM medium with 10% FBS, 1% penicillin-streptomycin solution, and 400 μg/ml of Zeocin. […] Cells were treated with the test compounds for 10 minutes followed by the addition of AITC at a final concentration of 30 μM (for human TRPA1) and/or 10 μM (for rat TRPA1) and 5 μCi/ml ^45Ca^+2 for 3 minutes. Cells were washed and lysed using a buffer containing 1% Triton X-100, 0.1% deoxycholate and 0.1% SDS. Radioactivity in the lysate was measured in a Packard TopCount after addition of liquid scintillant.
as §3

T1 sequence (O75762 whole entry): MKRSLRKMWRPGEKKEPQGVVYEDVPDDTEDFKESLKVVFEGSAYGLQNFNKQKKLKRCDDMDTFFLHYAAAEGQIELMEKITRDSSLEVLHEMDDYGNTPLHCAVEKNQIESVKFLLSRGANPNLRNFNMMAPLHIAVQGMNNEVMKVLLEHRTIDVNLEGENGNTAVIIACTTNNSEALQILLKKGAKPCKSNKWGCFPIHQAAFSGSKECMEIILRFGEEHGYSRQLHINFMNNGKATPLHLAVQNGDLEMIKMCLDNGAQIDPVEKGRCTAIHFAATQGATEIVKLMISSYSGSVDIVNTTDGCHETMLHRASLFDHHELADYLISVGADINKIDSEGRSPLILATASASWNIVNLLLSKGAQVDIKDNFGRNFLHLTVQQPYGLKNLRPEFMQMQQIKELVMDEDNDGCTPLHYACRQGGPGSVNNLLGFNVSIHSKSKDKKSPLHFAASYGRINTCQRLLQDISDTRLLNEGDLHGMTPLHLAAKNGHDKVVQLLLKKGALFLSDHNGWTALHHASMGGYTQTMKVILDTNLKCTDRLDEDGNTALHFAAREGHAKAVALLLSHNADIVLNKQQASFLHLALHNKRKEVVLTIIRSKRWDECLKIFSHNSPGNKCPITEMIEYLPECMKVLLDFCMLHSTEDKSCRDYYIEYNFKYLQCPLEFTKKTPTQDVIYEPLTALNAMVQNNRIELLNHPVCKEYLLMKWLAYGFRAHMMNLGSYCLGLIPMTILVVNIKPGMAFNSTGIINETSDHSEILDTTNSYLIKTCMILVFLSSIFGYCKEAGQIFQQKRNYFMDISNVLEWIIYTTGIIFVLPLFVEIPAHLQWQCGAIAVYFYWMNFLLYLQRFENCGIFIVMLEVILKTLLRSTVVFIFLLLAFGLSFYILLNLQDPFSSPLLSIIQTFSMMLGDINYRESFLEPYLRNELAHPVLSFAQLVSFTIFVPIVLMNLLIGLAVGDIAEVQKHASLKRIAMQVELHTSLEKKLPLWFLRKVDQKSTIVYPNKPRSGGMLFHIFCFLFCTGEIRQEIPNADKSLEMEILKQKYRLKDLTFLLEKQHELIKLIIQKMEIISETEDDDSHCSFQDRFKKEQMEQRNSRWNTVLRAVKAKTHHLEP
T2 sequence (Q6RI86 whole entry): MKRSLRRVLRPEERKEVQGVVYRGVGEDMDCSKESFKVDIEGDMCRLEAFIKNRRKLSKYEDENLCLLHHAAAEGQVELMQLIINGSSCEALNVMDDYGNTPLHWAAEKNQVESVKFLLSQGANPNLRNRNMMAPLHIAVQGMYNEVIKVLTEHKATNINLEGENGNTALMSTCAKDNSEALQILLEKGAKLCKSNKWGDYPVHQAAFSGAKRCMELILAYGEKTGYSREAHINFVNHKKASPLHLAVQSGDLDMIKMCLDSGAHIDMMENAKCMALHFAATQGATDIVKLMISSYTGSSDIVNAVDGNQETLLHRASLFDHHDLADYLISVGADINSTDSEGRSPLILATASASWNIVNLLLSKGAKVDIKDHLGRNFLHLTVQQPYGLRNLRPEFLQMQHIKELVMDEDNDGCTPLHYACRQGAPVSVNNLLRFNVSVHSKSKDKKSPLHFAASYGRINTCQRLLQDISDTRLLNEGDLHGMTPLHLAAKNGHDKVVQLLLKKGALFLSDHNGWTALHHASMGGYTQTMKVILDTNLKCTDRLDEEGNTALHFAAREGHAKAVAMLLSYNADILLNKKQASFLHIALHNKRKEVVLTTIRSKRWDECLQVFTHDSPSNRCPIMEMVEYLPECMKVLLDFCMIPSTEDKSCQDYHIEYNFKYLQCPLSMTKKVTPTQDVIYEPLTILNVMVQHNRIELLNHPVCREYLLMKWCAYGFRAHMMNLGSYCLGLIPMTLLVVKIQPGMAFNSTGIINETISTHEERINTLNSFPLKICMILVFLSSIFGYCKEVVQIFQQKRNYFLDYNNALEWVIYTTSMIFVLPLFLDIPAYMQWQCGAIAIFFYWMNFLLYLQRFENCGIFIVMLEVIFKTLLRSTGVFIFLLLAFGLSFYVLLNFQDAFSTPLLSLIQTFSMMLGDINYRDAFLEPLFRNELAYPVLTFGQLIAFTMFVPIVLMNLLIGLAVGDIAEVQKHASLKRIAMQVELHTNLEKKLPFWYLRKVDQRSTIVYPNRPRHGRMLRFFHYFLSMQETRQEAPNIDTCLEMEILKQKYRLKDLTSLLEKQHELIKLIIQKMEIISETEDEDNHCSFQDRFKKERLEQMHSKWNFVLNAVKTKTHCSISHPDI

Structure (SMILES)	inhibition at 1 µM (human TRPA1)	inhibition at 10 µM (human TRPA1)	IC50 (human TRPA1)	inhibition at 10 µM (rat TRPA1)	inhibition at 1 µM (rat TRPA1)	IC50 (rat TRPA1)
Cn1c(=O)c2c(CC(=O)Nc3nc(-c4ccc(OCC(F)(F)F)c(Br)c4)cs3)coc2n(C)c1=O [Example 32, N1-{4-[3-Bromo-4-(2,2,2-trifluoroethoxy)phenyl]-1,3-thiazol-2-yl}2-(1,3-dimethyl-2,4-dioxo-1,2,3,4-tetrahydrofuro[2,3-d]pyrimidin-5-yl)acetamide]	99.8%	99.5%	< 50 nM	100%	85.2%	< 50 nM
Cn1c(=O)c2c(CC(=O)Nc3nc(-c4ccc(Cl)c(Cl)c4Cl)cs3)coc2n(C)c1=O [Example 34, N1-[4-(2,3,4-Trichlorophenyl)-1,3-thiazol-2-yl]-2-(1,3-dimethyl-2,4-dioxo-1,2,3,4-tetrahydrofuro[2,3-d]pyrimidin-5-yl)acetamide]	97%	99.7%	< 50 nM	99.3%	91%	50 to 100 nM
Cn1c(=O)c2c(CC(=O)Nc3nc(-c4ccc(F)c(C(F)(F)F)c4F)cs3)coc2n(C)c1=O [Example 35, N1-{4-[2,4-Difluoro-3-(trifluoromethyl)phenyl]-1,3-thiazol-2-yl}2-(1,3-dimethyl-2,4-dioxo-1,2,3,4-tetrahydrofuro[2,3-d]pyrimidin-5-yl)acetamide]	99.8%	98.4%	< 50 nM	–	–	< 50 nM
Cn1c(=O)c2c(CC(=O)Nc3nc(-c4cc(F)c(C(F)(F)F)c(F)c4)cs3)coc2n(C)c1=O [Example 36, N1-{4-[3,5-Difluoro-4-(trifluoromethyl)phenyl]-1,3-thiazol-2-yl}-2-(1,3-dimethyl-2,4-dioxo-1,2,3,4-tetrahydrofuro[2,3-d]pyrimidin-5-yl)acetamide]	99.7%	99.6%	< 50 nM	100%	100%	50 to 100 nM
Cn1c(=O)c2c(CC(=O)Nc3nc(-c4cc(F)c(OC(F)F)c(F)c4)cs3)coc2n(C)c1=O [Example 37, N1-{4-[3,5-Difluoro-4-(difluoromethoxy)phenyl]-1,3-thiazol-2-yl}-2-(1,3-dimethyl-2,4-dioxo-1,2,3,4-tetrahydrofuro[2,3-d]pyrimidin-5-yl)acetamide]	99.9%	99.7%	< 50 nM	100%	100%	50 to 100 nM
Cn1c(=O)c2c(CC(=O)Nc3nc(-c4cc(Cl)c(OC(F)F)c(Cl)c4)cs3)coc2n(C)c1=O [Example 38, N1-{4-[3,5-Dichloro-4-(difluoromethoxy)phenyl]-1,3-thiazol-2-yl}-2-(1,3-dimethyl-2,4-dioxo-1,2,3,4-tetrahydrofuro[2,3-d]pyrimidin-5-yl)acetamide]	99.8%	99.9%	< 50 nM	100%	67%	> 100 nM
Cn1c(=O)c2c(CC(=O)Nc3nc(-c4cc(F)c(OCC5CC5)c(F)c4)cs3)coc2n(C)c1=O [Example 39, N1-{4-[4-(Cyclopropylmethoxy)-3,5-difluorophenyl]-1,3-thiazol-2-yl]-2-(1,3-dimethyl-2,4-dioxo-1,2,3,4-tetrahydrofuro[2,3-d]pyrimidin-5-yl)acetamide]	94.2%	98.7%	< 50 nM	–	–	> 100 nM
CC(C)COc1c(F)cc(-c2csc(NC(=O)Cc3coc4c3c(=O)n(C)c(=O)n4C)n2)cc1F [Example 40, N1-{4-(3,5-Difluoro-4-isobutoxyphenyl)-1,3-thiazol-2-yl}2-(1,3-dimethyl-2,4-dioxo-1,2,3,4-tetrahydrofuro[2,3-d]pyrimidin-5-yl)acetamide]	93.2%	99.2%	< 50 nM	99.6%	99.2%	< 50 nM
CC(C)COc1c(Cl)cc(-c2csc(NC(=O)Cc3coc4c3c(=O)n(C)c(=O)n4C)n2)cc1Cl [Example 41, N1-[4-(3,5-Dichloro-4-isobutoxyphenyl)-1,3-thiazol-2-yl]-2-(1,3-dimethyl-2,4-dioxo-1,2,3,4-tetrahydrofuro[2,3-d]pyrimidin-5-yl)acetamide]	99.6%	100%	< 50 nM	100%	99.5%	< 50 nM
Cn1c(=O)c2c(CC(=O)Nc3nc(-c4cc(F)c(OCC(C)(C)C)c(F)c4)cs3)coc2n(C)c1=O [Example 42, N1-{4-[3,5-Difluoro-4-(2,2-dimethylpropoxy)phenyl]-1,3-thiazol-2-yl}2-(1,3-dimethyl-2,4-dioxo-1,2,3,4-tetrahydrofuro[2,3-d]pyrimidin-5-yl)acetamide]	96.1%	99.9%	< 50 nM	–	–	< 50 nM
Cn1c(=O)c2c(CC(=O)Nc3nc(-c4cc(Cl)c(OCC(C)(C)C)c(Cl)c4)cs3)coc2n(C)c1=O [Example 43, N1-{4-[3,5-Dichloro-4-(2,2-dimethylpropoxy)phenyl]-1,3-thiazol-2-yl}-2-(1,3-dimethyl-2,4-dioxo-1,2,3,4-tetrahydrofuro[2,3-d]pyrimidin-5-yl)acetamide]	99.2%	99.7%	< 50 nM	100%	89.2%	50 to 100 nM
Cn1c(=O)c2c(CC(=O)Nc3nc(-c4cc(F)c(OCC(C)(C)C)c(Cl)c4)cs3)coc2n(C)c1=O [Example 44, N1-{4-[3-Chloro-5-fluoro-4-(2,2-dimethylpropoxy)phenyl]-1,3-thiazol-2-yl}-2-(1,3-dimethyl-2,4-dioxo-1,2,3,4-tetrahydrofuro[2,3-d]pyrimidin-5-yl)acetamide]	100%	99.5%	< 50 nM	99.2%	71%	< 50 nM
Cn1c(=O)c2c(CC(=O)Nc3nc(-c4cc(F)c(OCC(F)(F)F)c(F)c4)cs3)coc2n(C)c1=O [Example 46, N1-{4-[3,5-Difluoro-4-(2,2,2-trifluoroethoxy)phenyl]-1,3-thiazol-2-yl}-2-(1,3-dimethyl-2,4-dioxo-1,2,3,4-tetrahydrofuro[2,3-d]pyrimidin-5-yl)acetamide]	99.8%	100%	< 50 nM	99.5%	96.1%	50 to 100 nM
Cn1c(=O)c2c(CC(=O)Nc3nc(-c4cc(Cl)c(OCC(F)(F)F)c(Cl)c4)cs3)coc2n(C)c1=O [Example 47, N1-{4-[3,5-Dichloro-4-(2,2,2-trifluoroethoxy)phenyl]-1,3-thiazol-2-yl}2-(1,3-dimethyl-2,4-dioxo-1,2,3,4-tetrahydrofuro[2,3-d]pyrimidin-5-yl)acetamide]	99.2%	99.8%	< 50 nM	100%	86%	< 50 nM
Cn1c(=O)c2c(CC(=O)Nc3nc(-c4cc(F)c(OCC(F)(F)F)c(Cl)c4)cs3)coc2n(C)c1=O [Example 48, N1-{4-[3-Chloro-5-fluoro-4-(2,2,2-trifluoroethoxy)phenyl]-1,3-thiazol-2-yl}-2-(1,3-dimethyl-2,4-dioxo-1,2,3,4-tetrahydrofuro[2,3-d]pyrimidin-5-yl)acetamide]	96.6%	95.1%	< 50 nM	99.2%	99.6%	< 50 nM
